Data reported in publication PMC8758481, “Astroglial tracer BU99008 detects multiple binding sites in Alzheimer’s disease brain” (Molecular Psychiatry, 2021).
Like-named read-outs stand apart in the source and are kept apart here.

Key:
[1] = molecular target: imidazoline-2 binding sites (I2BS); experiment: ^3H-BU99008 competition binding assay with unlabelled ligands in temporal cortex brain homogenate; parameters: species or system human
Procedure: (§1) After 1 h incubation a similar protocol as saturation binding assay was done and the binding was quantified using the scintillation counter.
(§2) The competition binding data was fitted and analysed using non-linear regression competitive-binding function of GraphPad Prism 8.3 software to determine IC50 (half-maximal inhibitory concentration) values.

[2] = system: imidazoline-2 binding sites (I2BS); parameters: method as in PMID 29523627; conditions: human brain, pretreatment, highest dose of 80 mg; ref [43]; cited from earlier work
[3] = molecular target: T1, monoamine oxidase B (MAO B) (Homo sapiens, UniProt P27338); experiment: ^3H-Deprenyl competition binding assay in temporal cortex brain homogenate; conditions: for IC50: vs 10 nM ^3H-Deprenyl, two-site fit
T1 construct: from tissue; host or cells: large frozen postmortem human brain sections (control, sporadic AD, AβPParc carrier)
T1 sequence (P27338 1-520): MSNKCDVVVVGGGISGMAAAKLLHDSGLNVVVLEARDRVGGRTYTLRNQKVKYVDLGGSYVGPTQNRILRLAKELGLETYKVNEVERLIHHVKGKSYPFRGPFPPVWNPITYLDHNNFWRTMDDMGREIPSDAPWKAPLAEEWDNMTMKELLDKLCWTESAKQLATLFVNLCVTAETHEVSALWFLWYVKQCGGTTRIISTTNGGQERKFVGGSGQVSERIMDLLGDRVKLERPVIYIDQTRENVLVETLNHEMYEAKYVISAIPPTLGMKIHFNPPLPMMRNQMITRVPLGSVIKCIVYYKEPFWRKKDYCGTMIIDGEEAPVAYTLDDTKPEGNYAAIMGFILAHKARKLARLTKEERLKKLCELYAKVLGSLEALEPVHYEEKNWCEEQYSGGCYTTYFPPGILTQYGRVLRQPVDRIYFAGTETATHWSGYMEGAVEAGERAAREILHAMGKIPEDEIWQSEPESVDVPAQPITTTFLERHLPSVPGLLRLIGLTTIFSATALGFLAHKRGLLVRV
Procedure: as §1, §2

[4] = molecular target: imidazoline-2 binding sites (I2BS); experiment: ^3H-BU99008 competition binding with unlabelled BU99008 in the presence of MAO B inhibitors; parameters: species or system human; conditions: for IC50: unlabelled BU99008 alone
Procedure: A similar protocol as saturation binding assay was performed after 1 h incubation and the binding was quantified using the scintillation counter.
as §2

[5] = system: imidazoline-2 binding sites (I2BS); parameters: method as in PMID 29523627, PMID 24711648; conditions: rhesus brain, dose-dependent; ref [43], [51]; cited from earlier work
[6] = AD temporal cortex, vs 1 nM ^3H-BU99008, two-site fit, read-out: IC50_1
[7] = AD temporal cortex, vs 1 nM ^3H-BU99008, two-site fit, read-out: IC50_2
[8] = CN temporal cortex, vs 1 nM ^3H-BU99008, two-site fit, read-out: IC50_1
[9] = CN temporal cortex, vs 1 nM ^3H-BU99008, two-site fit, read-out: IC50_2

IC50 [1, 8] | IC50 [1, 9] | proportion of Low-affinity (LA; 10^-7 to -6 M) binding sites ([1]; CN, ^3H-BU99008 competition) | SMILES | IC50 [1, 6] | IC50 [1, 7] | proportion of High-affinity (HA; 10^-10 to -9 M) binding sites ([1]; CN, ^3H-BU99008 competition) | proportion of Low-affinity (LA; 10^-7 to -6 M) binding sites ([1]; AD, ^3H-BU99008 competition) | proportion of Super high-affinity (SH; 10^-13 to -11 M) binding sites ([1]; CN, ^3H-BU99008 competition) | other results
0.34 nM | 150 nM | 82% | Cl.c1ccc2oc(C3=NCCN3)cc2c1 [2-BFI, 2-(Benzofuran-2-yl)-2-imidazoline hydrochloride] | 0.041 nM | 165 nM | 18% |  |  | proportion of Super high-affinity (SH; 10^-13 to -11 M) binding sites ([1]; AD, ^3H-BU99008 competition): 19%
 |  |  | c1ccc2c(c1)OCC(C1=NCCN1)O2 (stereo not drawn) [idazoxan] |  |  |  |  |  | average block of ^11C-BU99008 uptake across all regions [2]: 60%
 |  |  | C[C@H](NCc1ccc(OCc2cccc(F)c2)cc1)C(N)=O [safinamide] |  |  |  |  |  | effect on binding of BU99008 to the SH binding sites ([4]; CN, ^3H-BU99008 competition): completely blocked; decrease in ^3H-BU99008 total binding ([4]; CN, lower concentration ranges [10^-14-10^-9]): 15–30%; effect on binding of BU99008 to HA binding sites ([4]; both CN and AD cases, increasing concentrations of inhibitor): not affected
0.026 nM | 186 nM | 56% | Cl.c1ccc2nc(C3=NCCN3)ccc2c1 [BU224, 2-(4,5-Dihydroimidazol-2-yl)quinoline hydrochloride] |  |  |  | 100% | 44% | IC50 ([1]; AD temporal cortex, vs 1 nM ^3H-BU99008, single binding site, read-out: IC50): 416 nM; ^11C-BU99008 signal throughout the brain after pretreatment [5]: significantly reduced

SMILES | IC50 [1, 8] | IC50 [1, 9] | proportion of Low-affinity (LA; 10^-7 to -6 M) binding sites ([1]; CN, ^3H-BU99008 competition) | IC50 [1, 6] | IC50 [1, 7] | proportion of High-affinity (HA; 10^-10 to -9 M) binding sites ([1]; CN, ^3H-BU99008 competition) | proportion of Low-affinity (LA; 10^-7 to -6 M) binding sites ([1]; AD, ^3H-BU99008 competition) | proportion of Super high-affinity (SH; 10^-13 to -11 M) binding sites ([1]; CN, ^3H-BU99008 competition) | other results
Cn1c(C2=NCCN2)cc2ccccc21 [BU99008, 2-(4,5-dihydro-1H-imidazol-2-yl)-1-methyl-1H-indole] |  | 2.45 nM |  | 1.43 nM | 342 nM | 75% | 22% | 25% | proportion of High-affinity (HA; 10^-10 to -9 M) binding sites ([1]; AD, ^3H-BU99008 competition): 78%; majority of binding to HA binding sites ([1]; both CN and AD cases, ^3H-BU99008 competition): 75–78%; majority of binding to LA sites [3]: 70–78%; IC50 ([3]; AD temporal cortex, read-out: IC50_1): 0.002 nM; IC50 ([3]; AD temporal cortex, read-out: IC50_2): 254 nM; IC50 ([3]; CN temporal cortex, read-out: IC50_1): 0.72 nM; IC50 ([3]; CN temporal cortex, read-out: IC50_2): 3110 nM; IC50 ([4]; AD (85 years), one-site, read-out: IC50): 1.73 nM; IC50 ([4]; CN (71 years), vs 1 nM ^3H-BU99008, read-out: IC50_2 (HA)): 2.81 nM
